Experimental data: the supplement of paper PMC10307832

Legend:
Test in all cases: relative viability (nuclei count vs DMSO), 5 days (fraction); higher = more cells survive
YM155 + Luminespib = compound: COCC[n+]1c2c(n(Cc3cnccn3)c1C)C(=O)c1ccccc1C2=O [YM155] + CCNC(=O)c1noc(-c2cc(C(C)C)c(O)cc2O)c1-c1ccc(CN2CCOCC2)cc1 [Luminespib] (partner 0.01 µM)
Procedure, shortened: (§1)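 One day after seeding in 1536-well plates, lung cancer cell lines were dosed by pin tool. Dosing was either single-drug or a fixed anchor-drug dose plus five library-drug doses (not always all listed) in √10 steps. After 5 days, nuclei were stained in one fix-and-stain step and counted on 4× images, and relative viability is the nuclei count of treated wells over that of vehicle wells, given as the median of duplicate plates.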

YM155 + Navitoclax = compound: COCC[n+]1c2c(n(Cc3cnccn3)c1C)C(=O)c1ccccc1C2=O [YM155] + CC1(C)CCC(c2ccc(Cl)cc2)=C(CN2CCN(c3ccc(C(=O)NS(=O)(=O)c4ccc(N[C@H](CCN5CCOCC5)CSc5ccccc5)c(S(=O)(=O)C(F)(F)F)c4)cc3)CC2)C1 [Navitoclax] (partner 0.5 µM)
Procedure, shortened: as §1

YM155 + Dasatinib = compound: COCC[n+]1c2c(n(Cc3cnccn3)c1C)C(=O)c1ccccc1C2=O [YM155] + Cc1nc(Nc2ncc(C(=O)Nc3c(C)cccc3Cl)s2)cc(N2CCN(CCO)CC2)n1 [Dasatinib] (partner 0.075 µM)
Procedure, shortened: as §1

Quizartinib + Crizotinib = compound: CC(C)(C)c1cc(NC(=O)Nc2ccc(-c3cn4c(n3)sc3cc(OCCN5CCOCC5)ccc34)cc2)no1 [Quizartinib] + C[C@@H](Oc1cc(-c2cnn(C3CCNCC3)c2)cnc1N)c1c(Cl)ccc(F)c1Cl [Crizotinib] (partner 1 µM)
Procedure, shortened: as §1

Row | Cell Line | relative viability (YM155 + Luminespib; first compound 0.002 µM) | relative viability (YM155 + Luminespib; first compound 0.006325 µM) | relative viability (YM155 + Luminespib; first compound 0.02 µM) | relative viability (YM155 + Luminespib; first compound 0.06325 µM) | relative viability (YM155 + Navitoclax; first compound 0.002 µM) | relative viability (YM155 + Navitoclax; first compound 0.006325 µM) | relative viability (YM155 + Navitoclax; first compound 0.02 µM) | relative viability (YM155 + Navitoclax; first compound 0.06325 µM) | relative viability (YM155 + Dasatinib; first compound 0.002 µM) | relative viability (YM155 + Dasatinib; first compound 0.006325 µM) | relative viability (YM155 + Dasatinib; first compound 0.02 µM) | relative viability (YM155 + Dasatinib; first compound 0.06325 µM) | relative viability (Quizartinib + Crizotinib; first compound 0.001 µM) | relative viability (Quizartinib + Crizotinib; first compound 0.003162 µM) | relative viability (Quizartinib + Crizotinib; first compound 0.01 µM) | relative viability (Quizartinib + Crizotinib; first compound 0.1 µM) | relative viability (Quizartinib + Crizotinib; first compound 0.03162 µM)
1 | NCI-H460 | 0.0266 | 0.0307 | 0.035 | 0.0204 | 1.17 | 1.23 | 1.27 | 0.903 | 0.487 | 0.499 | 0.582 | 0.547 | 0.708 | 0.842 | 1.02 | 0.416 | –
2 | NCI-H520 | 0.238 | 0.266 | 0.215 | 0.233 | 1.15 | 0.991 | 1.07 | 1.03 | 0.197 | 0.174 | 0.217 | 0.185 | 0.726 | 0.686 | 0.739 | 0.666 | 0.726
3 | NCI-H596 | 1.06 | 1.02 | 0.924 | 1.27 | – | 0.972 | 1.09 | 1.03 | 0.653 | 0.58 | 0.544 | 0.692 | 0.971 | 1 | 1.09 | 0.761 | 0.932
4 | NCI-H647 | 0.151 | 0.148 | 0.162 | 0.106 | 0.947 | 1.17 | 0.855 | 0.442 | 0.151 | 0.241 | 0.192 | 0.149 | 0.9 | 0.948 | 1.31 | 0.847 | 1.06
5 | NCI-H727 | 0.588 | 0.336 | 0.307 | 0.665 | 0.479 | 0.382 | 0.39 | 0.48 | 0.359 | 0.5 | 0.389 | 0.352 | 0.74 | – | 0.939 | 0.662 | 0.772
6 | NCI-H838 | 0.254 | 0.429 | 0.234 | 0.158 | 1.04 | 1.21 | 1.22 | 0.791 | – | 0.291 | 0.299 | 0.281 | 0.787 | 0.878 | 0.767 | 0.368 | 0.691
7 | NCI-H1355 | 0.633 | 0.724 | 0.733 | 0.683 | 0.947 | 1.08 | 1.08 | 1.04 | 0.731 | 0.748 | 0.781 | 0.801 | 1.03 | 1.01 | 1.11 | 1.15 | 0.99
8 | NCI-H1437 | 1.1 | 1.1 | 0.976 | 0.76 | 1.07 | 1.08 | 1.09 | 1.01 | 0.351 | 0.324 | 0.348 | 0.253 | 0.822 | 0.849 | 0.906 | 0.608 | 0.687
9 | NCI-H1650 | 0.181 | 0.197 | 0.175 | 0.228 | 1.23 | 1.08 | 0.835 | 0.23 | 0.283 | 0.338 | 0.368 | 0.353 | 0.891 | 0.957 | 1.23 | 0.881 | –
10 | NCI-H1651 | 0.869 | 0.836 | 0.789 | 0.604 | 1.22 | 0.995 | 1.08 | 0.606 | 0.437 | 0.372 | 0.442 | 0.39 | 0.757 | 0.9 | 0.877 | 0.896 | 0.86
11 | NCI-H1666 | 1.01 | 1.07 | 1.02 | 0.852 | 0.991 | – | 0.996 | 0.861 | 0.812 | 0.791 | 0.799 | 0.826 | 0.917 | 0.829 | 1.07 | 0.974 | 0.777
12 | NCI-H1734 | 0.242 | 0.202 | 0.23 | 0.174 | 0.867 | 0.88 | 0.835 | 0.876 | 0.471 | 0.525 | 0.495 | 0.518 | 0.582 | 0.656 | 0.854 | 0.549 | 0.602
13 | NCI-H1755 | 0.519 | 0.445 | 0.473 | 0.583 | 0.996 | 0.981 | 0.949 | 1.06 | 0.449 | 0.4 | 0.467 | 0.453 | 0.819 | 0.839 | 0.95 | 0.791 | 0.853
14 | NCI-H1792 | 0.441 | 0.47 | 0.475 | 0.403 | 0.595 | 0.615 | 0.63 | 0.612 | 0.83 | 0.606 | 0.782 | 0.941 | 0.743 | 0.978 | 1.04 | 0.995 | 0.958
15 | NCI-H1915 | 0.803 | 0.809 | 0.829 | 0.711 | 0.804 | 0.79 | 0.792 | 0.822 | 0.311 | 0.284 | 0.309 | 0.301 | 0.83 | 0.841 | 0.905 | 0.944 | 0.983
16 | NCI-H1944 | 0.688 | 0.637 | 0.81 | 1.16 | 1.05 | 0.983 | 1.05 | 1.17 | 0.201 | 0.202 | 0.208 | 0.24 | 1.11 | 1.09 | 1.15 | 1.11 | 1.21
17 | NCI-H1975 | 0.283 | 0.253 | 0.209 | 0.156 | 1.09 | 0.97 | 1.08 | 0.626 | 0.312 | 0.334 | 0.352 | 0.233 | 1.02 | 0.929 | 0.922 | 1.09 | 0.986
18 | NCI-H1993 | 0.722 | 0.695 | 0.444 | 0.529 | 0.968 | 0.951 | 0.847 | 0.795 | 0.568 | 0.572 | 0.478 | 0.539 | 0.904 | 0.951 | 0.916 | 0.948 | 0.952
